Test results: ChEMBL document CHEMBL1124217, “2,4-Diamino-5-benzylpyrimidines and analogues as antibacterial agents. 9. Lipophilic trimethoprim analogues as antigonococcal agents” (J Med Chem, 1988)
≈ marks a conversion by molar mass, not a printed value.

How the values were obtained:
Neisseria gonorrhoeae = assay: Inhibition of growth of Neisseria gonorrhoeae; assay type: functional
Dihydrofolate reductase = molecular target: T1, Dihydrofolate reductase (Rattus norvegicus, UniProt Q920D2); assay: Inhibition of Rat liver Dihydrofolate reductase(DHFR); conditions: read-out: I50
T1 sequence (Q920D2 whole entry): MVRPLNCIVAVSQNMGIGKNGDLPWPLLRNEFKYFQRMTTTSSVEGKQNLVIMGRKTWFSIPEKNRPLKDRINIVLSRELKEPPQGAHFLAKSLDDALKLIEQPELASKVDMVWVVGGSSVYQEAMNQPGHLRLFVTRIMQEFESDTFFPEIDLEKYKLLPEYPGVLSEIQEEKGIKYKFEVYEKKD

Shigella flexneri [1] = assay: Inhibition of growth of Shigella flexneri (CN6007) measured as MIC compound/MIC Trimethoprim; assay type: functional
Klebsiella aerogenes [2] = assay: Inhibition of growth of Enterobacter aerogenes (2200/186) measured as MIC(compound/MIC Trimethoprim; assay type: functional
Vibrio cholerae [3] = assay: Inhibition of growth of Vibrio cholera (ATCC 14035) measured as MIC compound/MIC Trimethoprim; assay type: functional
Proteus vulgaris [4] = assay: Inhibition of growth of Proteus vulgaris (CN329) measured as MIC compound/MIC Trimethoprim; assay type: functional
Escherichia coli [5] = assay: Inhibition of growth of Escherichia coli (CN314) measured as MIC compound/MIC Trimethoprim; assay type: functional
Klebsiella pneumoniae [6] = assay: Inhibition of growth of Klebsiella pneumoniae (CN3632) measured as MIC compound/MIC Trimethoprim; assay type: functional
Staphylococcus aureus [7] = assay: Inhibition of growth of Staphylococcus aureus (CN491) measured as MIC compound/MIC Trimethoprim; assay type: functional
Shigella flexneri [8] = assay: Inhibition of growth of Shigella flexneri (CN6007) was measured
Klebsiella aerogenes [9] = assay: microbe, parasite or virus in culture
Description: Inhibition of growth of Enterobacter aerogenes (2200/186) was measured

Proteus vulgaris [10] = assay: Inhibition of growth of Proteus vulgaris (CN329) was measured
[11] = test system: Mycolicibacterium smegmatis; assay: Inhibition of growth of Mycobacterium smegmatis (S3254) was measured
Klebsiella pneumoniae [12] = assay: Inhibition of growth of Klebsiella pneumoniae (CN3632) was measured
Vibrio cholerae [13] = assay: microbe, parasite or virus in culture; conditions: ATCC 14035
Description: Inhibition of growth of Vibrio cholera (ATCC 14035) was measured

Serratia marcescens = assay: Inhibition of growth of Serratia marcescens (CN2398) was measured
Staphylococcus aureus [14] = assay: Inhibition of growth of Staphylococcus aureus (CN491) was measured
Escherichia coli [15] = assay: Inhibition of growth of Escherichia coli (CN314) was measured

| Compound | MIC (Neisseria gonorrhoeae) [µM] | MIC ratio (Shigella flexneri [1]) | MIC ratio (Klebsiella aerogenes [2]) | MIC ratio (Proteus vulgaris [4]) | MIC ratio (Escherichia coli [5]) | MIC ratio (Klebsiella pneumoniae [6]) | MIC ratio (Staphylococcus aureus [7]) | other results |
| --- | --- | --- | --- | --- | --- | --- | --- | --- |
| C/C=C/c1cc(Cc2cnc(N)nc2N)cc(OC)c1OC | 110 (≈ 33 µg/mL) | – | – | – | – | – | – | – |
| CCCc1cc(Cc2cnc(N)nc2N)cc(CC)c1OC | 17.5 (≈ 5.26 µg/mL) | 30 | 100 | 30 | 30 | 30 | 0.3 | IC50 (Dihydrofolate reductase): 30 µM; MIC (Vibrio cholerae [3]): 10 µg/mL (≈ 33.3 µM) |
| CCCc1cc(Cc2cnc(N)nc2N)cc(CC)c1O | 9 (≈ 2.58 µg/mL) | 3 | 10 | 3 | 10 | 3 | 0.3 | MIC (Vibrio cholerae [3]): 1 µg/mL (≈ 3.49 µM) |
| CCc1cc(Cc2cnc(N)nc2N)cc(C)c1OC | 140 (≈ 38.1 µg/mL) | 30 | 30 | 3 | 30 | 30 | 3 | – |
| C=CCc1cc(Cc2cnc(N)nc2N)cc(CCC)c1O | – | – | – | – | – | – | – | IC50 (Dihydrofolate reductase): 3.63 µM |
| CCc1cc(Cc2cnc(N)nc2N)cc(C)c1O | – | 3 | 3 | – | 3 | 3 | 1 | – |
| COc1c(C)cc(Cc2cnc(N)nc2N)cc1C | 200 (≈ 51.7 µg/mL) | – | 1000 | 300 | 1000 | 300 | 100 | – |
| COc1cc(Cc2cnc(N)nc2N)cc(OC)c1OC [TRIMETHOPRIM] | 240 (≈ 69.7 µg/mL) | – | – | – | – | – | – | MIC (Shigella flexneri [8]): 1 µg/mL (≈ 3.44 µM); MIC (Klebsiella aerogenes [9]): 1 µg/mL (≈ 3.44 µM); MIC (Proteus vulgaris [10]): 1 µg/mL (≈ 3.44 µM); MIC (Salmonella): 1 µg/mL (≈ 3.44 µM); MIC [11]: 1 µg/mL (≈ 3.44 µM); MIC (Klebsiella pneumoniae [12]): 1 µg/mL (≈ 3.44 µM); MIC (Vibrio cholerae [13]): 1 µg/mL (≈ 3.44 µM); MIC (Serratia marcescens): 1 µg/mL (≈ 3.44 µM); MIC (Staphylococcus aureus [14]): 1 µg/mL (≈ 3.44 µM); MIC (Escherichia coli [15]): 1 µg/mL (≈ 3.44 µM) |
| CCCc1cc(Cc2cnc(N)nc2N)cc(OC)c1OC | 54 (≈ 16.3 µg/mL) | – | – | – | – | – | – | – |
| C=CCc1cc(Cc2cnc(N)nc2N)cc(OC)c1OC | 110 (≈ 33 µg/mL) | – | – | – | – | – | – | – |
| CC(C)(C)c1cc(Cc2cnc(N)nc2N)cc(C(C)(C)C)c1O | 35 (≈ 11.5 µg/mL) | > 1000 | > 1000 | > 1000 | > 1000 | > 1000 | 30 | – |
| Cc1cc(Cc2cnc(N)nc2N)cc(C(C)(C)C)c1O | – | 30 | 100 | 100 | 100 | 100 | 3 | – |
| COc1c(C(C)C)cc(Cc2cnc(N)nc2N)cc1C(C)C | – | – | > 1000 | > 1000 | 3000 | > 1000 | 30 | – |
| Cc1cc(Cc2cnc(N)nc2N)cc(C)c1O | – | – | 1 | 3 | 10 | 3 | 10 | – |
| CCOc1cc(Cc2cnc(N)nc2N)cc(OC)c1OC | 180 (≈ 54.8 µg/mL) | – | – | – | – | – | – | – |
| COc1c(C)cc(Cc2cnc(N)nc2N)cc1C(C)(C)C | – | 300 | 300 | > 30 | 100 | > 100 | 10 | MIC (Vibrio cholerae [3]): 10 µg/mL (≈ 33.3 µM) |
| CCc1cc(Cc2cnc(N)nc2N)cc(CC)c1O | – | 10 | 10 | 10 | 3 | 10 | 3 | MIC (Vibrio cholerae [3]): 1 µg/mL (≈ 3.67 µM) |
| COc1c(C(C)(C)C)cc(Cc2cnc(N)nc2N)cc1C(C)(C)C | 13 (≈ 4.45 µg/mL) | – | > 1000 | > 1000 | 10000 | > 1000 | 30 | – |
| CCCc1cc(Cc2cnc(N)nc2N)cc(CCC)c1OC | – | 100 | 100 | 30 | 30 | 30 | 1 | MIC (Vibrio cholerae [3]): 10 µg/mL (≈ 31.8 µM) |
| CCc1cc(Cc2cnc(N)nc2N)cc(CC)c1OC | – | 3 | 10 | 30 | 3 | 10 | 0.3 | – |
| CCCc1cc(Cc2cnc(N)nc2N)cc(CCC)c1O | – | 10 | 30 | 30 | 10 | 30 | 0.3 | MIC (Vibrio cholerae [3]): 1 µg/mL (≈ 3.33 µM) |
